Several values for one entry are separate records, joined by “and”; a condition that tells them apart may be missing. Identical values can stand only once. Like-named read-outs stand apart in the source and are kept apart here. Marks after values point to notes of the source that are not given here.
How the values were obtained:
[1] = Rat PK (intravenous and oral)
Experimental: (§4) Rat pharmacokinetic (“PK”) characterization was conducted in male Sprague Dawley Rats (Rattus Norvegicus) weighing between 210-260 gm (Charles River Laboratories (Hollister, Calif.)). Rats were fed a standard diet and water was available ad-libidum at all times. […] Animals were dosed either orally (2.5 mg/Kg) via gavage or intravenously (0.5 mg/kg) via the jugular vein cannula. Blood samples (˜0.15 mL) were collected through carotid artery cannula at respective time points and transferred immediately into K2EDTA-coated tubes (that contain quenching media-acetic acid, PMSF and Dichlorvos) and placed on ice. The samples were centrifuged within thirty minutes after collection at 10,000 RPM for five minutes and the resulting plasma was separated. Plasma were transferred into microfuge tubes and placed on dry ice immediately. The plasma samples were stored at approximately −70° C. until shipped on dry ice for Bioanalysis by LC/MS/MS. Urine samples were collected using metabolic cages into a tube containing citric acid (4 mg for 0-4 and 4-8 hr interval and 16 mg for 8-24 hr interval) on wet ice at the intervals specified in the study design. After the completion of urine collection at each interval, each cage was rinsed with 2 mL of deionized water (1 mL each time). The rinse was collected in the separate labeled container (containing 2 mg of citric acid) as the urine. Following this rinse another 2 ml rinse was carried out with ethanol (1 ml each time). The rinse was also collected in the separate labeled container as the urine. Samples were stored frozen at −70° C. until bioanalysis by LC/MS/MS was performed.
(§5) Pharmacokinetic parameters were determined by non-compartmental analysis using Phoenix®WinNonlin® (Version 6.3; Pharsight Corp., Mountain View, Calif.). Nominal doses and sampling times were used for the analysis. Concentrations reported as BLQ were treated as missing unless they were pre-dose; then they were set to zero. Maximum plasma concentration (Cmax) and time of observed maximum plasma analyte concentration (Tmax) were generated by Phoenix®WinNonlin®, directly from the inputed dataset. […] Area under the plasma concentration-time curve from time 0 to infinity (AUCinf) was calculated as the sum of AUClast and the last observed concentration divided by k. Total plasma clearance (CL) was calculated as Dose/AUCinf. Apparent volume of distribution at steady state (Vss) was calculated as MRTinf*CL, where MRT is the mean residence time.

human hepatocytes = test: MetID determination in human hepatocytes; assay type: in vitro ADME
Experimental: (§1) Cryopreserved human and Sprague-Dawley rat hepatocytes were thawed in a 37° C. water bath. […] Samples were obtained from separate plates for each time point during the incubation. At each sampling time, the plates were removed from the incubator, quenched by adding 100 μL cold acetonitrile, and placed in an ice bath until centrifugation at 4,000 rpm for 30 minutes at 4° C. Supernatants were stored at or below −70° C. until LC-MS/MS analysis could be conducted. The liquid chromatography system used was Agilent 1100 Autosampler, Binary Pump, DAD and Column Enclosure. Tandem mass spectrometry was conducted using a Thermo DECA XP MAX Ion Trap Mass Spectrometer. The ion source was Electrospray (+) and the LC column used was a Varian, Polaris 5 C18-A (250×2.1 mm, 5 micron) column.
(§2) Metabolic pathways of metoclopramide and conjugates were determined in rat and human hepatocytes. N-dealkylation was the major metabolic pathway for metoclopramide in rats, and metabolism in human hepatocytes was minimal. […] FIG. 2 and FIG. 3 show the metabolic pathway of for mPEG1-N-metoclopramide and mPEG4-N-metoclopramide, respectively. […] In this figure, different metabolites for each conjugate are denoted with the “M” and correspond to the designation provided in the figure for a given conjugate. For example, metabolite M1 for mPEG1-N-metoclopramide in Table 6 corresponds to M1 in FIG. 2, metabolite M2 for mPEG4-N-metoclopramide in Table 6 corresponds to M2 in FIG. 3 and metabolite M3 mPEG8-N-metoclopramide in Table 6 corresponds to M3 in FIG. 4.

[2] = tested on: Sprague-Dawley rat hepatocytes; test: MetID determination in rat hepatocytes; assay type: in vitro ADME
Experimental: as §1, §2

dopamine 2S receptor = target: T1, dopamine 2S receptor (Homo sapiens, UniProt P14416); test: β-Arrestin functional assay (dopamine), antagonist mode; assay type: cell-based; settings: for IC50: β-arrestin interaction, CHO-K1 cells expressing D2S, dopamine at EC80 (400 nM); for Fold-change Relative to Parent: IC50 relative to metoclopramide, D2S β-arrestin
T1 construct: host or cells: CHO-K1 (PathHunter eXpress β-arrestin cells)
T1 sequence (P14416 1-414 isoform P14416-2): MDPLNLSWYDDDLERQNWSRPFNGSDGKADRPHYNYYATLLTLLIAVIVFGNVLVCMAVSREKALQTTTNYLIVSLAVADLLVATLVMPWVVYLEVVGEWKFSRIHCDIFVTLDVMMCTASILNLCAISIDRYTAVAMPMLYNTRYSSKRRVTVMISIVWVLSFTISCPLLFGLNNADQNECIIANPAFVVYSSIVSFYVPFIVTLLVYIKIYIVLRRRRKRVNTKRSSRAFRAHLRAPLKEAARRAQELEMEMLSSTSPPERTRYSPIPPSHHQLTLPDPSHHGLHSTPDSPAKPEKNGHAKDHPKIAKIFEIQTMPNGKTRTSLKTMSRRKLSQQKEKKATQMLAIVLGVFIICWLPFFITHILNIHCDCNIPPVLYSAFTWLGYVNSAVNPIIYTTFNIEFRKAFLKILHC

dopamine 2L receptors [3] = target: T2, dopamine 2L receptors (Homo sapiens, UniProt P14416); test: Competition binding assay (dopamine 2L receptors), [3H]methylspiperone; set-up: expressed in transfected cells; settings: for Fold-change Relative to Parent: IC50 relative to metoclopramide, D2L binding
T2 sequence (P14416 whole entry): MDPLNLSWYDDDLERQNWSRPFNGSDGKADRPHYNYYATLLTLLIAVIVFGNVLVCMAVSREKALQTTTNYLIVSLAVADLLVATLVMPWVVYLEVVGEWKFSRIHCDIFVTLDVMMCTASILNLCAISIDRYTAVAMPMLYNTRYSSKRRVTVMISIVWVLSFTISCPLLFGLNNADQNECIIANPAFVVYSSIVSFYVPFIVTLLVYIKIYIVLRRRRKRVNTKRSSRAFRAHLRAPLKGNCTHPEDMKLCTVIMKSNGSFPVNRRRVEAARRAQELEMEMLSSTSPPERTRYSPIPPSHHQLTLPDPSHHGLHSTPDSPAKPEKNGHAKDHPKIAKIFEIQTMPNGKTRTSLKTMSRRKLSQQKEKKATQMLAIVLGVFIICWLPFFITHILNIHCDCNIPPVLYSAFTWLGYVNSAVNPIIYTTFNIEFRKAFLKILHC
Experimental: (§3) [^3H] Methylspiperone was diluted in assay buffer to a final concentration of 0.4 nM. To start the assay, 1 uL of compound was added into 96-well v-bottom plates, followed by the addition of 50 uL of diluted membrane preparation, then finally diluted [^3H] Methylspiperone was added. The assay mixture was incubated for 60 minutes at room temperature with shaking. Following incubation, bound [^3H] methylspiperone on 5% PEI soaked GF/B filter plates using a Filtermate Harvester (Perkin Elmer) were then washed four times with ice cold wash buffer (50 mM Tris-HCl, pH 7.5). Filter plates were air dried for two minutes, and then 50 uL of MicroScint-20 was added into each well. Radioactivity counts were quantified using a Top Count plate reader (Perkin Elmer). Data was analyzed using one-site binding competition non-linear regression curve fitting on GraphPad Prism.

CYP2D6 [4] = target: T3, CYP2D6 (Homo sapiens, UniProt P10635); settings: cited from earlier work
T3 sequence (P10635 whole entry): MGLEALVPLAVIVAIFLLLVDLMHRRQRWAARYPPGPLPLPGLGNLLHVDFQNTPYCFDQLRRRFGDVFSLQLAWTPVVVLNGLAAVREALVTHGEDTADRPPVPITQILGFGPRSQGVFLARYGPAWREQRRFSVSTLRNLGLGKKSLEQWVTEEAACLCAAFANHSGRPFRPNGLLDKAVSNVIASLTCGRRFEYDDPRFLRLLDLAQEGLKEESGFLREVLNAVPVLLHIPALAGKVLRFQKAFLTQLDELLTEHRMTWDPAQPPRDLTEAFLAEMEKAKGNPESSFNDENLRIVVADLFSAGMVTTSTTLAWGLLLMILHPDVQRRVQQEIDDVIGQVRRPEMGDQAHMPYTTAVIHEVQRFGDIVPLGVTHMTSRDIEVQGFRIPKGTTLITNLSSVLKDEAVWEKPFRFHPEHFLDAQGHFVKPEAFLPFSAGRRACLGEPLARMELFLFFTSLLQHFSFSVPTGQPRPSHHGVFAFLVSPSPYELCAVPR

[5] = target: T4, 5HT3A receptors (serotonin 3A receptors) (Homo sapiens, UniProt P46098); test: Competition binding assay (serotonin 3A receptors), [3H]GR65630; settings: for IC50: [3H]GR65630 competition, HEK 293 membranes expressing 5HT3A; for Fold-change Relative to Parent: IC50 relative to metoclopramide, 5HT3A binding
T4 construct: expressed in transfected cells
T4 sequence (P46098 24-478): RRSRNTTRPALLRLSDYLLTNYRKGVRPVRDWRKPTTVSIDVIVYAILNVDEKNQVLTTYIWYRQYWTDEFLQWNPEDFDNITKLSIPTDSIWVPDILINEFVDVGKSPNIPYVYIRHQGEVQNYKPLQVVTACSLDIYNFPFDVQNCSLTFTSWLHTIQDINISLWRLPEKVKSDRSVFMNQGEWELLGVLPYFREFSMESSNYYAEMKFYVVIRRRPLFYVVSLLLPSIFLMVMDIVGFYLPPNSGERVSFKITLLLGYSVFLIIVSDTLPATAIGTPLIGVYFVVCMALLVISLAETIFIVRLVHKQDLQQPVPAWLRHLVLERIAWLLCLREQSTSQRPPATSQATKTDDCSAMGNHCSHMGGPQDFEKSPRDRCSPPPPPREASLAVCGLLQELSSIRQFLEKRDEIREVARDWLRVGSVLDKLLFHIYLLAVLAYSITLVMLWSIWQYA
Experimental: as §3, with “Methylspiperone was diluted in assay buffer to a final concentration of 0.4 nM.” left out, “Methylspiperone was added.” left out, “methylspiperone on 5% PEI soaked GF/B filter plates using a Filtermate Harvester (Perkin Elmer) were then washed four times with ice cold wash buffer (50 mM Tris-HCl, pH 7.5).” left out

[6] = Chemical stability in potassium phosphate buffer; assay type: physicochemical; settings: 100 mM potassium phosphate buffer, pH 7.4 at 37° C. for up to 30 minutes
Experimental: FIG. 5B is a plot of the results of a chemical stability study of test articles in a 100 mM potassium phosphate buffer, pH 7.4 at 37° C. for up to thirty minutes.

dopamine 2L receptors [7] = target: T2, dopamine 2L receptors; settings: read-out: expected IC50; expected value; cited from earlier work
in vivo = settings: male, Sprague Dawley, rat, plasma
Experimental: as §4, §5

[8] = target: T4, 5HT3A receptors (serotonin 3A receptors); settings: value in brackets after the IC50; cited from earlier work
[9] = target: T5, 5HT4B receptors (serotonin 4B receptors) (Homo sapiens, UniProt Q13639); settings: value in brackets after the IC50; cited from earlier work
T5 construct: expressed in transfected cells
T5 sequence (Q13639 whole entry): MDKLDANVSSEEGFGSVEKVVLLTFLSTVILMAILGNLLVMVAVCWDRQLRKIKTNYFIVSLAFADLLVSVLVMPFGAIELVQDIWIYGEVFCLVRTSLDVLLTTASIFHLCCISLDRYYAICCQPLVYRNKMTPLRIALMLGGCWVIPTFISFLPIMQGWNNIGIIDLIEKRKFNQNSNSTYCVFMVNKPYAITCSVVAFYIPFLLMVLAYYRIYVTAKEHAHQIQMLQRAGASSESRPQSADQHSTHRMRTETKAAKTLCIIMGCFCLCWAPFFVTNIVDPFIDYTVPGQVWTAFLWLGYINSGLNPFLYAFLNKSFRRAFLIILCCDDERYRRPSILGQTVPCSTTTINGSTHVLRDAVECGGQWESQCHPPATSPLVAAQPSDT

CYP2D6 [10] = target: T3, CYP2D6; test: Metabolic stability in human recombinant CYP2D6 enzyme; assay type: in vitro ADME; set-up: purchased Xenotech, LLC; settings: 1 μM, 100 pmol/mL CYP2D6, up to 30 min, 37° C.
[11] = target: T5, 5HT4B receptors (serotonin 4B receptors); test: Competition binding assay (serotonin 4B receptors), [3H]GR113808; settings: for Fold-change Relative to Parent: IC50 relative to metoclopramide, 5HT4B binding; for IC50: [3H]GR113808 competition, HEK 293 membranes expressing 5HT4B
[12] = incubation of 10 μM metoclopramide, parent and its metabolites M (FIG. 1)
[13] = [3H]methylspiperone competition, HEK 293 membranes expressing D2L, read-out: IC50
[14] = preliminary run that was not quality controlled, read-out: IC50, preliminary run

SMILES: CCN(CC)CCNC(=O)c1cc(Cl)c(N)cc1OC [Metoclopramide, N-(2-diethylaminoethyl)-2-methoxy-4-amino-5-chlorobenzamide, reference compound]
- CLRen ([1]; intravenous, 0.5 mg/kg): 7.2* mL/min/kg
- Clast ([1]; oral gavage, 2.5 mg/Kg): 8.07 ng/mL
- Tlast ([1]; oral gavage, 2.5 mg/Kg): 16 h
- extent of metabolism in human hepatocytes (human hepatocytes; human hepatocytes): minimal
- % of Total Metabolism, Human Hep 1 hr (human hepatocytes; [12]): 96.8%
- % of Total Metabolism, Human Hep 4 hr (human hepatocytes; [12]): 97.5%
- % of Total Metabolism, Rat Hep 1 hr [2, 12]: 87%
- % of Total Metabolism, Rat Hep 4 hr [2, 12]: 61%
- major metabolic pathway ([2]; rat hepatocytes): N-dealkylation
- IC50 (dopamine 2S receptor): 0.0821 µM and 0.0822 µM
- IC50 (dopamine 2L receptors [3]; [13]): 0.0842 µM
- IC50 (dopamine 2L receptors [3]; [14]): 0.932 µM
- time-dependent inhibition of CYP2D6 (literature / known) (CYP2D6 [4]; as reported in the literature): CYP2D6 time-dependent inhibitor
- IC50 ([5]; IC50 [M]): 6.86e-06 M
- IC50 ([5]; IC50 [nM]): 6.86e-06 M
- chemical stability [6]: chemically stable
- IC50 (dopamine 2L receptors [7]): 0.54 µM
- AUC(0-inf) (in vivo; iv, 0.5 mg/kg): 66.8 ng·h/mL
- MRT inf (in vivo; iv, 0.5 mg/kg): 32.4 min
- Vd (in vivo; iv, 0.5 mg/kg): 4.12 L/kg
- clearance (in vivo; iv, 0.5 mg/kg): 126 mL/min/kg
- half-life (in vivo; iv, 0.5 mg/kg): 30 min
- AUC (in vivo; po, 2.5 mg/kg): 261 ng·h/mL
- CL/F (in vivo; po, 2.5 mg/kg): 131 mL/min/kg
- Cmax (in vivo; po, 2.5 mg/kg): 166 ng/mL
- Tmax (in vivo; po, 2.5 mg/kg): 22.8 min
- pKi [8]: 5.9-6.4

SMILES: CN1[C@@H]2CC[C@H]1C[C@@H](OC(=O)c1c[nH]c3ccccc13)C2 [Tropisetron]
- pKi [9]: 8.5-8.8

SMILES: CCN(CCNC(=O)c1cc(Cl)c(N)cc1OC)CCOCCOCCOC [mPEG3-N-Metoclopramide]
- metabolism by human recombinant CYP2D6 enzyme (CYP2D6 [10]): to a lesser degree than metoclopramide
- Fold-change Relative to Parent (dopamine 2S receptor): 25
- IC50 (dopamine 2S receptor): 2.05 µM and 2.06 µM
- Fold-change Relative to Parent (dopamine 2L receptors [3]): 41
- IC50 (dopamine 2L receptors [3]; [13]): 3.45 µM
- IC50 (dopamine 2L receptors [3]; [14]): 4.65 µM and 13.1 µM
- Fold-change Relative to Parent [11]: 2.1
- IC50 [11]: 31.8 µM
- Fold-change Relative to Parent [5]: 23
- IC50 ([5]; read-out: IC50): 0.00016 M
- chemical stability [6]: chemically stable

SMILES: CCN(CCNC(=O)c1cc(Cl)c(N)cc1OC)CCOCCOCCOCCOCCOC [mPEG5-N-Metoclopramide]
- metabolism by human recombinant CYP2D6 enzyme (CYP2D6 [10]): to a lesser degree than metoclopramide
- Fold-change Relative to Parent (dopamine 2S receptor): 44.1
- IC50 (dopamine 2S receptor): 3.62 µM
- Fold-change Relative to Parent (dopamine 2L receptors [3]): 98.5
- IC50 (dopamine 2L receptors [3]; [13]): 8.29 µM
- IC50 (dopamine 2L receptors [3]; [14]): 15.1 µM
- Fold-change Relative to Parent [11]: 3.8
- IC50 [11]: 58.1 µM
- Fold-change Relative to Parent [5]: 156
- IC50 ([5]; read-out: IC50): 0.00107 M
- chemical stability [6]: chemically stable

SMILES: CCN(CCNC(=O)c1cc(Cl)c(N)cc1OC)CCOCCOCCOCCOCCOCCOC [mPEG6-N-Metoclopramide]
- metabolism by human recombinant CYP2D6 enzyme (CYP2D6 [10]): to a lesser degree than metoclopramide
- Fold-change Relative to Parent (dopamine 2S receptor): 52.05
- IC50 (dopamine 2S receptor): 4.27 µM and 4.28 µM
- Fold-change Relative to Parent (dopamine 2L receptors [3]): 92.1
- IC50 (dopamine 2L receptors [3]; [13]): 7.75 µM
- Fold-change Relative to Parent [11]: 3.8
- IC50 [11]: 57.8 µM
- Fold-change Relative to Parent [5]: 129
- IC50 ([5]; read-out: IC50): 0.000885 M
- chemical stability [6]: chemically stable

SMILES: Fc1ccc([C@@H]2CCNC[C@H]2COc2ccc3c(c2)OCO3)cc1 [paroxetine]
- time-dependent inhibition of CYP2D6 (literature / known) (CYP2D6 [4]): time-dependent inhibitor of CYP2D6

Source: patent US10434181B2, “Oligomer-containing benzamide-based compounds” (Nektar Therapeutics, priority 2012, dated 2019)
